This is an account of results in patent US8722687B2, “Imidazo [1,2-A]pyridine derivatives as FGFR kinase inhibitors for use in therapy” (Astex Therapeutics Ltd, priority 2009, dated 2014).

Structures are written as SMILES. Some results are limits rather than exact numbers.

The target of one assay is T1, FGFR3 (Homo sapiens, UniProt P22607).
T1 construct: purchased Upstate
The experiment in a line: FGFR3 in vitro kinase inhibitory activity assay. In kind it is biochemical. The following applies: read-out: FGFR3 IC50(μM) or % I. The protocol:
(§1) FGFR3, VEGFR2 and PDGFR in vitro Kinase Inhibitory Activity Assays
(§2) Enzymes (from Upstate), prepared at 2× final concentration, were incubated with test compounds, biotinylated Flt3 substrate (biotin-VASSDNEYFYVDF) (Cell Signalling Technology Inc.) and ATP in the appropriate assay buffer (Table 1). The reaction was allowed to proceed for 3 hours (FGFR3), 1 hour (VEGFR2, PDGFR-beta) at room temperature on a plate shaker at 700 rpm before being stopped with 35 mM EDTA, pH 8 (FGFR3, VEGFR2) or 55 mM EDTA, pH 8 (PDGFR-beta). 5× detection mix/50 mM HEPES pH 7.5, 0.1% BSA, 11.34 nM Eu-anti-pY (PY20) (PerkinElmer) 74 nM SA-XL665 (Cisbio) for FGFR3, 50 mM HEPES, pH 7.5, 0.1% BSA, 11.34 nM Eu-anti-pY (PY20), 187.5 nM SA-XL665 for VEGFR2 and 50 mM HEPES, pH 7.5, 0.1% BSA, 11.34 nM Eu-anti-pY (PT66) (PerkinElmer), 375 nM SA-XL665 (Cisbio) for PDGFR-beta) was then added to each well and the plate sealed and incubated at room temperature for one hour on a plate shaker at 700 rpm. The plate was then read on a Packard Fusion plate reader or a BMG Pherastar both in TRF mode.

The target in a further assay is T2, VEGFR2 (Homo sapiens, UniProt P35968).
T2 construct: purchased Upstate
The experiment in a line: VEGFR2 in vitro kinase inhibitory activity assay. In kind it is biochemical. To be noted: read-out: VEGFR2 IC50(μM) or % I. The protocol:
as §1, §2
Kinase Assay buffers were:
B: 50 mM HEPES pH 7.5, 6 mM MnCl2, 1 mM DTT, 0.01% TritonX-100, 0.1 mM Sodium orthovanadate

Assay [1] relates to parental wild-type Ba/F3 cells. Briefly: Ba/F3 (WT) cell proliferation assay (Alamar Blue). In kind it is cell-based, murine. To be noted: read-out: BaF3 WT prolif; for IC50: BaF3, 72 hours, with mouse IL-3. The method, then: (§3) Ba/F3-TEL-FGFR3 & Ba/F3 (WT) Cell Proliferation Assays
(§4) Stably transfected Ba/F3-TEL-FGFR3 cells were plated out into black 96-well tissue culture plates with clear bottoms in RPMI medium containing 10% FBS and 0.25 mg/ml G418 at a density of 5×10^3 cells/well (200 μl per well). The parental wild-type Ba/F3 cells (DSMZ no.: ACC 300) were plated out into black 96-well tissue culture plates with clear bottoms in RPMI medium containing 10% FBS and 2 ng/ml mouse IL-3 (R&D Systems) at a density of 2.5×10^3 cells/well (200 μl per well). Plates were placed in an incubator overnight before adding the compounds the following day. Dilutions of compounds were made in DMSO starting at 10 mM and were diluted into the wells to give a final DMSO concentration of 0.1% in assay. Compounds were left on the cells for 72 hours before the plates were removed from the incubator and 20 μl of Alamar Blue™ (Biosource) was added to each well. Plates were placed in the incubator for 4-6 hours before reading plates at 535 nm (excitation)/590 nm (emission) on a Fusion plate reader (Packard). Where inhibition is high an IC50 can be determined.
(In general: Resazurin is reduced to fluorescent resorufin, in cell work by metabolically active cells.)

The next assay deals with T3, Ba/F3-TEL-FGFR3 cells (Homo sapiens, UniProt P22607).
T3 construct: fused on or other part: TEL (ETV6) N-terminal oligomerising part fused to the FGFR3 kinase part; P41212 (Transcription factor ETV6)
Briefly: Ba/F3-TEL-FGFR3 cell proliferation assay (Alamar Blue). In kind it is cell-based, murine. The following applies: 72 hours; read-out: BaF3-TEL-FGFR3 prolif. The protocol:
as §3, §4

For assay [2], the system named is human prostate cancer PC3 cells. The experiment in a line: EB1 cellular assay (Eb1 Comet assay, microtubule disruption). In kind it is cell-based. To be noted: PC-3, lowest active concentration: Eb1 foci absent in at least 50% of treated PC3 cells, 1 hour, read-out: Eb1 LAC. The method, then: The Eb1 Comet assay relies on the detection of the Eb1 protein at the plus end of polymerizing microtubules (Mimori-Kiyosue, 2000) using indirect immunofluorescence. Disruption of microtubule dynamics through de-polymerization or stabilization results in a de-localization of Eb1 from the growing microtubule ends and this is visualized by the disappearance of Eb1 containing cytoplasmic foci.
Briefly, human prostate cancer PC3 cells obtained from the American Type Culture Collection were grown in 96-well plates (Greiner, cat. no. 655090) in HAM's F12 medium as recommended by the provider (ATCC). The cells were treated for 1 hour at 37° C. with compounds dissolved in DMSO (0.6% final DMSO concentration). The culture medium was then removed by aspiration and the cells were fixed by adding cold methanol (−20° C.). After a 15 minutes incubation at −20° C., the cells were washed twice with DPBS (Gibco) containing 0.5% Triton X-100. Mouse Eb1 antibody (BD Transduction Laboratories, cat. no. 610534) was added to the cells (1/250 dilution in DPBS containing 1% BSA) and incubated overnight at room temperature. The antibody was subsequently removed and the cells washed twice with DPBS, 0.5% Triton X-100. Secondary goat anti-mouse antibody conjugated to Alexa 488 fluorescent dye (Molecular Probes) was added at a 1/500 dilution in DPBS, 1% BSA and incubated for 1 hour at 37° C. The cells were washed twice with DPBS, 0.5% Triton X-100 and then DPBS containing 0.5% Triton X-100 and 1/5000 Hoechst 33342 (Molecular Probes) was added. Microscopy based Eb1 foci visualization was carried out using an IN Cell Analyser 1000 (Amersham Biosciences) using a 20× objective. Compound dependent microtubule disruption was visually determined by the disappearance in Eb1 foci. The lowest active concentration (LAC) was determined as the concentration where Eb1 foci were absent in at least 50% of the treated cells. Herein the effects of test compounds are expressed as pLAC (the negative log value of the LAC-value)

T3 sequence (P22607 whole entry, change not shown, the tested form may be a part): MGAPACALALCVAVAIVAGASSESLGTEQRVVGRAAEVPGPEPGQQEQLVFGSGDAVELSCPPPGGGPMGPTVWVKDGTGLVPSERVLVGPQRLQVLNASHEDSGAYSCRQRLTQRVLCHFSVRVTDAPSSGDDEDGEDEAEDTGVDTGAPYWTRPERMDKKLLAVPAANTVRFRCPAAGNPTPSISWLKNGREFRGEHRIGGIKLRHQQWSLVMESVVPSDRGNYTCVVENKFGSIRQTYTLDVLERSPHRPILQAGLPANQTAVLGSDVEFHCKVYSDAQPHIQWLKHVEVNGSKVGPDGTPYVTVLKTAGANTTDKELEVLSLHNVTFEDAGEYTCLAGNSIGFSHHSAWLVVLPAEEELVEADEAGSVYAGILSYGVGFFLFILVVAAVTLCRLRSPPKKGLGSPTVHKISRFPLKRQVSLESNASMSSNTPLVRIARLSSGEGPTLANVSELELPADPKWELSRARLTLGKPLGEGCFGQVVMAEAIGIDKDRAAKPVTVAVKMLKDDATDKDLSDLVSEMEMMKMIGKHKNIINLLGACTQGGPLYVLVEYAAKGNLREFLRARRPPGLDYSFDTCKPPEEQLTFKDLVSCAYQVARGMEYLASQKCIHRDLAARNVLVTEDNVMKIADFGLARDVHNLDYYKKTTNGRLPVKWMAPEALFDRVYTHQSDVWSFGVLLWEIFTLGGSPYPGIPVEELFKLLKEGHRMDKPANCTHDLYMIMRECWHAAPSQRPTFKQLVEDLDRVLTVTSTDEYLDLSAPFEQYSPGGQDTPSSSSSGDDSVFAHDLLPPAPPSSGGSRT
T2 sequence (P35968 20-1356): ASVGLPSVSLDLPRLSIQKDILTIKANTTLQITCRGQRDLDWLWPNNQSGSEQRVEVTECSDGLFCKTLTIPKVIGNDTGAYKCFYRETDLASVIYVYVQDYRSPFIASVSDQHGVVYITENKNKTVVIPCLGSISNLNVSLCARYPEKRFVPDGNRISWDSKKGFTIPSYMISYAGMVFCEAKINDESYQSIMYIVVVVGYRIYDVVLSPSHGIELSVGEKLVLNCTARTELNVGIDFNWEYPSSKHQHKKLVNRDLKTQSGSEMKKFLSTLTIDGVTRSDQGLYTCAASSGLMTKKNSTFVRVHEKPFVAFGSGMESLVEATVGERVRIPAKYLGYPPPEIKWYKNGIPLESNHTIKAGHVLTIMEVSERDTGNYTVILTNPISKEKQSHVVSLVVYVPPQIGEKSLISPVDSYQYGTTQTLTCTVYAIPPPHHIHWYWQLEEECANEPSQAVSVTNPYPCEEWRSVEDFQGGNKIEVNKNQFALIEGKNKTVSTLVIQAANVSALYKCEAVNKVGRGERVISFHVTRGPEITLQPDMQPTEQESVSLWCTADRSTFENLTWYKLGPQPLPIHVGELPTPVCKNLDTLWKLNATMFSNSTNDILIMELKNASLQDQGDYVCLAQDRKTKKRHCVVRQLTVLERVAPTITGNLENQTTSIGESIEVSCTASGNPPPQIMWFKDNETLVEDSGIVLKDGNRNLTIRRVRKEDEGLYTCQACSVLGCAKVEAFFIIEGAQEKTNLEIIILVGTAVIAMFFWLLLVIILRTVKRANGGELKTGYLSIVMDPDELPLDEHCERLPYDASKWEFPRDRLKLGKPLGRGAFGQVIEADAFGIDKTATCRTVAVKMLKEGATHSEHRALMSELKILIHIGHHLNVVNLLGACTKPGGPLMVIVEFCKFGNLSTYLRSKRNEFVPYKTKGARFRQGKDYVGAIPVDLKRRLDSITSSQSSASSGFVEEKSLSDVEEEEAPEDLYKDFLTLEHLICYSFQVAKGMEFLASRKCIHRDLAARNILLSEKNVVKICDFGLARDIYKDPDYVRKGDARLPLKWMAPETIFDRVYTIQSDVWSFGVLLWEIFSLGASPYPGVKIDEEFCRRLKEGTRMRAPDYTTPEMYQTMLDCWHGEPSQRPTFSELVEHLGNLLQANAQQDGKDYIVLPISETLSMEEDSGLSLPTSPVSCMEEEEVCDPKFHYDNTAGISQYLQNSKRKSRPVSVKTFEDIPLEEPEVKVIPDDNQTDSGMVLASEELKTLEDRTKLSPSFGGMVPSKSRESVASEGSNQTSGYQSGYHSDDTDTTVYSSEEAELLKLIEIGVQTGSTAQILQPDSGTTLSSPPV
T1 sequence (P22607 23-806): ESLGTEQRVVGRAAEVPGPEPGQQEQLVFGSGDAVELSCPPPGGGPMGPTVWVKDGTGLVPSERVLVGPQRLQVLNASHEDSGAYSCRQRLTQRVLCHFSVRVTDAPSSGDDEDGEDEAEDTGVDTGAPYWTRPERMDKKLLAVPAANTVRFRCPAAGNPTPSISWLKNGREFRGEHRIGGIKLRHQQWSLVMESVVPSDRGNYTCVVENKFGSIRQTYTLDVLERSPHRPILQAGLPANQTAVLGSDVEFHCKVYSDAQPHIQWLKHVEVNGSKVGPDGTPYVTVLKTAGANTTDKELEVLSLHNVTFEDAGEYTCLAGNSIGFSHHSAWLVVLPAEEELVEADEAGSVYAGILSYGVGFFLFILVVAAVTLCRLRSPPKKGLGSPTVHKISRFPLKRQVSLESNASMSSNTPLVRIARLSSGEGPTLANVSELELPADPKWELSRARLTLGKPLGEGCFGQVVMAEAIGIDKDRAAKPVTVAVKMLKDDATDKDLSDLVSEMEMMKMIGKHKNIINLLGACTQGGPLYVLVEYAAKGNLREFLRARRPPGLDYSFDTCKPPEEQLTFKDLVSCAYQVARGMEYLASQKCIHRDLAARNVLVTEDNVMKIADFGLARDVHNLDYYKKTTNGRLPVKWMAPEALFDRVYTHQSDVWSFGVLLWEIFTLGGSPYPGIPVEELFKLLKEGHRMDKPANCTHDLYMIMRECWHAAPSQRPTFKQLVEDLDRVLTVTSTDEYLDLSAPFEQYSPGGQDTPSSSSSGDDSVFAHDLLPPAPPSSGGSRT

On to `CCNC(=O)Nc1cc(OC(C)C)cc(-c2cnc3cc(-c4nncs4)ccn23)c1` [Compound F-10, 1-Ethyl-3-[3-isopropoxy-5-(7-[1,3,4]thiadiazol-2-yl-imidazo[1,2-a]pyridin-3-yl)-phenyl]-urea], for which the IC50 on FGFR3 was 0.013 µM; at VEGFR2, 0.36 µM. In assay [1] (Mus musculus, BaF3, 72 h), the inhibition at 10 µM amounted to 34%. On Ba/F3-TEL-FGFR3 cells, the GI50 was 230 nM. The minimal effective concentration in assay [2] came out at 5 µM.

Turning to `CC(C)Oc1cc(NC(=O)NCC(F)(F)F)cc(-c2cnc3cc(C(=O)C4CC4)ccn23)c1` [Compound F-6, 1-[3-(7-Cyclopropanecarbonyl-imidazo[1,2-a]pyridin-3-yl)-5-isopropoxy-phenyl]-3-(2,2,2-trifluoro-ethyl)-urea], the IC50 was determined as 0.0012 µM on FGFR3, 0.074 µM on VEGFR2 and 5600 nM in assay [1]. Besides, the GI50 on Ba/F3-TEL-FGFR3 cells is 31 nM. Besides, the minimal effective concentration in assay [2] turned out to be 3 µM.

As to `CC(C)Oc1cc(NC(=O)NCC(F)(F)F)cc(-c2cnc3cc(-c4ccnc(C(F)(F)F)n4)ccn23)c1` [Compound F-8, 1-{3-Isopropoxy-5-[7-(2-trifluoromethyl-pyrimidin-4-yl)-imidazo[1,2-a]pyridin-3-yl]-phenyl}-3-(2,2,2-trifluoro-ethyl)-urea], the IC50 on FGFR3 is 0.034 µM; at VEGFR2, 1.2 µM; in assay [1] it was ~2000 nM. The GI50 at Ba/F3-TEL-FGFR3 cells was found to be 170 nM. The minimal effective concentration in assay [2] stood at 5 µM.

For `CCOc1cc(NC(=O)NCC(F)(F)F)cc(-c2cnc3cc(-c4ccnc(C(F)(F)F)n4)ccn23)c1` [Compound F-16, 1-{3-Ethoxy-5-[7-(2-trifluoromethyl-pyrimidin-4-yl)-imidazo[1,2-a]pyridin-3-yl]-phenyl}-3-(2,2,2-trifluoro-ethyl)-urea], the results for the IC50 at FGFR3 and on VEGFR2 were 0.027 µM and 0.4 µM, respectively. Besides, in assay [1] (Mus musculus, BaF3, 72 h), the inhibition at 10 µM worked out at 32%. Moreover, at Ba/F3-TEL-FGFR3 cells, the GI50 was 470 nM. Further, the minimal effective concentration in assay [2] is > 10 µM.

On to `CC(C)Oc1cc(NC(=O)NCC(F)(F)F)cc(-c2cnc3cc(-c4nncs4)ccn23)c1.Cl` [Compound F-19, 1-[3-Isopropoxy-5-(7-[1,3,4]thiadiazol-2-yl-imidazo[1,2-a]pyridin-3-yl)-phenyl]-3-(2,2,2-trifluoro-ethyl)-urea], for which the IC50 on FGFR3 was 0.00247 µM; at VEGFR2 it was 0.092 µM. Further, in assay [1] (Mus musculus, BaF3, 72 h, % at 1.00 μM), the inhibition at 1 µM stood at 0%. Further, the GI50 at Ba/F3-TEL-FGFR3 cells came out at 42 nM. Moreover, the minimal effective concentration in assay [2] was determined as 3 µM.

Regarding `Cc1nnc(-c2ccn3c(-c4cc(NC(=O)NCC(F)(F)F)cc(OC(C)C)c4)cnc3c2)o1` [Compound F-5, 1-{3-Isopropoxy-5-[7-(5-methyl-[1,3,4]oxadiazol-2-yl)-imidazo[1,2-a]pyridin-3-yl]-phenyl}-3-(2,2,2-trifluoro-ethyl)-urea], the IC50 at FGFR3 came out at 0.0154 µM; on VEGFR2, 0.635 µM. Also, the inhibition at 10 µM in assay [1] (Mus musculus, BaF3, 72 h) worked out at 59%. For the same compound, the GI50 on Ba/F3-TEL-FGFR3 cells was determined as 220 nM. For the same compound, in assay [2], the minimal effective concentration is > 10 µM.

Take `COCc1cc(NC(=O)NCC(F)(F)F)cc(-c2cnc3cc(-c4nnc(C)o4)ccn23)c1` [Compound F-7, 1-{3-Methoxymethyl-5-[7-(5-methyl-[1,3,4]oxadiazol-2-yl)-imidazo[1,2-a]pyridin-3-yl]-phenyl}-3-(2,2,2-trifluoro-ethyl)-urea]: the IC50 came to 0.018 µM at FGFR3 and 0.17 µM at VEGFR2. The inhibition at 10 µM in assay [1] (Mus musculus, BaF3, 72 h) turned out to be 0%. At Ba/F3-TEL-FGFR3 cells, the GI50 was 350 nM. The minimal effective concentration in assay [2] was determined as 10 µM.

Regarding `Cc1nnc(-c2ccn3c(-c4cc(NC(=O)NCC(F)(F)F)cc(OC5CCC5)c4)cnc3c2)o1` [Compound F-11, 1-{3-Cyclobutoxy-5-[7-(5-methyl-[1,3,4]oxadiazol-2-yl)-imidazo[1,2-a]pyridin-3-yl]-phenyl}-3-(2,2,2-trifluoro-ethyl)-urea], the IC50 on FGFR3 is 0.046 µM. Moreover, the inhibition at 1 µM at VEGFR2 (1 h, % I at 1 μM) was determined as 59%. The inhibition at 10 µM in assay [1] (Mus musculus, BaF3, 72 h) was 14%. Further, the GI50 at Ba/F3-TEL-FGFR3 cells came out at 520 nM. Also, the minimal effective concentration in assay [2] is > 10 µM.

As to `CCNC(=O)Nc1cc(OC(C)C)cc(-c2cnc3cc(-c4nnc(C)s4)ccn23)c1` [Compound F-23, 1-Ethyl-3-{3-isopropoxy-5-[7-(5-methyl-[1,3,4]thiadiazol-2-yl)-imidazo[1,2-a]pyridin-3-yl]-phenyl}-urea], the IC50 amounted to 0.004 µM at FGFR3 and 0.087 µM on VEGFR2. Moreover, the inhibition at 10 µM in assay [1] (Mus musculus, BaF3, 72 h) came out at 5%. The GI50 on Ba/F3-TEL-FGFR3 cells worked out at 50 nM. For the same compound, the minimal effective concentration in assay [2] turned out to be 5 µM.

As for `CC(C)Oc1cc(NC(=O)NCC(F)(F)F)cc(-c2cnc3cc(-c4nccc(C(C)C)n4)ccn23)c1` [Compound F-29, 1-{3-Isopropoxy-5-[7-(4-isopropyl-pyrimidin-2-yl)-imidazo[1,2-a]pyridin-3-yl]-phenyl}-3-(2,2,2-trifluoroethyl)-urea], the IC50 at FGFR3 turned out to be 0.092 µM; in assay [1], 3980 nM. In addition, at VEGFR2 (1 h, % I at 10 μM), the inhibition at 10 µM was determined as 53%. The GI50 on Ba/F3-TEL-FGFR3 cells turned out to be 3160 nM. Moreover, the minimal effective concentration in assay [2] is > 10 µM.

Take `Cc1nnc(-c2ccn3c(-c4cc(NC(=O)NCC(F)(F)F)cc(OC(C)C)c4)cnc3c2)s1.Cl` [Compound F-20, 1-{3-Isopropoxy-5-[7-(5-methyl-[1,3,4]thiadiazol-2-yl)-imidazo[1,2-a]pyridin-3-yl]-phenyl}-3-(2,2,2-trifluoro-ethyl)-urea]: the IC50 at FGFR3 was found to be 0.00096 µM; on VEGFR2 it was 0.029 µM. Further, the inhibition at 3 µM in assay [1] (Mus musculus, BaF3, 72 h, % at 3.00 μM) worked out at 0%. The GI50 at Ba/F3-TEL-FGFR3 cells was determined as 9 nM. For the same compound, in assay [2], the minimal effective concentration was 0.1 µM.

For the compound `CC(C)Oc1cc(NC(=O)NCC(F)(F)F)cc(-c2cnc3cc(-c4ncc(F)c(N)n4)ccn23)c1` [Compound F-1, 1-{3-[7-(4-Amino-5-fluoro-pyrimidin-2-yl)-imidazo[1,2-a]pyridin-3-yl]-5-isopropoxy-phenyl}-3-(2,2,2-trifluoro-ethyl)-urea], the IC50 amounted to 0.0072 µM at FGFR3 and 1.35 µM on VEGFR2. Further, the inhibition at 10 µM in assay [1] (Mus musculus, BaF3, 72 h) was found to be 42%. Besides, at Ba/F3-TEL-FGFR3 cells, the GI50 is 120 nM. Further, the minimal effective concentration in assay [2] was > 10 µM.
